In patent publication US9453849B2, “Methods for staining cells for identification and sorting” (PREMIUM GENETICS (UK) LIMITED, priority 2005, dated 2016):
Where two headings read alike, the source gives them in different places.

Key:
[1] = system: DNA; details: cited from earlier work
[2] = system: cell membranes; details: not told; cited from earlier work
[3] = system: Bovine sperm
Description: A sample cell was formed by two parallel glass slides coated with 1,500-2000 angstroms (Å) of indium tin oxide (ITO). The slides were separated by fragments of number zero glass cover slips, yielding a slide separation of 100 millimeters (mm).
The sample cell was connected to a resistor-capacitator (RC) circuit by alligator clips. A direct current (DC) power supply was used to charge a capacitor. When a switch was thrown, the discharging capacitor generated a time-dependant and spatially uniform electric field across the sample. An oscilloscope was used to monitor the voltage across the sample cell as a function of time.
The RC circuit formed by the sample cell and capacitor allowed for a well-controlled electric field to be generated. The resistance (R) of the circuit was left floating—that is, determined by the geometry and content of the sample cell. Typical R values ranged from 2-10,000 watts (W) depending primarily on the electrical conductivity of the buffer. The capacitance was varied from 0.1 millifarads (mF) to 1000 mF.
Bovine sperm that had been previously frozen were thawed for 60 seconds in a 96° F. water bath. Sperm were then centrifuged at 2,000 rotations per minute (rpm) for two minutes and the supernatant decanted. Sperm were then re-suspended with 0.35 M sucrose to partially dehydrate the sperm. The sperm solution was then incubated at 96° F. for 15 minutes and then transferred to the sample cell of the electroporation unit.
A voltage was applied to the capacitor circuit, and then the power supply was disconnected. A switch was then thrown and the capacitor discharged across the sample cell. These steps were carried out within 15 seconds of transferring the sperm to the sample cell to retain a random orientation of sperm with respect to the electric field. Electroporation was carried out on sperm in isotonic (0.25 M sucrose) and hypertonic (0.35 M sucrose) solutions. In each case, 10 V was applied to the capacitor and a time constant of 0.26 milliseconds (ms) measured.
A solution of 0.1 M sucrose and the DNA-specific dye, propidium iodide, was then injected into the sample cell. Fluorescence microscopy is used to image the sperm.
To distinguish fluorescent dead cells from fluorescent live cells, sperm motility was assessed.

Compound | base selectivity (Applications) [1] | permeability to cell membranes (Applications) [2] | DNA affinity (Applications) [1] | further results
Cc1c2oc3c(C)c(N)cc(C(=O)N[C@@H]4C(=O)N[C@H](C(C)C)C(=O)N5CCC[C@H]5C(=O)N(C)CC(=O)N(C)[C@@H](C(C)C)C(=O)O[C@@H]4C)c3nc-2c(C(=O)N[C@@H]2C(=O)N[C@H](C(C)C)C(=O)N3CCC[C@H]3C(=O)N(C)CC(=O)N(C)[C@@H](C(C)C)C(=O)O[C@@H]2C)c(N)c1=O [7-AAD (7-amino-actinomycin D), 7-amino-actinomycin D] | GC-selective | – | – | –
CN1CCN(c2ccc3nc(-c4ccc5nc(-c6ccc(N(C)C)cc6)[nH]c5c4)[nH]c3c2)CC1 [Hoechst 34580] | AT-selective | – | – | dsDNA selectivity (Applications) [1]: dsDNA-selective binding
COc1ccc2nc3cc(Cl)ccc3c(NCCCNCCCCNCCCNc3c4ccc(Cl)cc4nc4ccc(OC)cc34)c2c1 [Acridine homodimer] | AT-selective | Impermeant | High-affinity DNA binding | –
CC[N+](C)(CC)CCC[n+]1c(-c2ccccc2)c2cc(N)ccc2c2ccc(N)cc21.[I-].[I-] [propidium iodide] | – | Impermeant | – | increase in the number of damaged and non-motile sperm [3]: 68%; loss of motile sperm compared to the control [3]: 70%; motile and fluorescent sperm ([3]; control samples unexposed to electric fields): did not yield motile and fluorescent sperm; motile and fluorescent sperm ([3]; electroporated, 10 V, time constant 0.26 ms, hypertonic/hypotonic solution (0.35 M sucrose, then 0.1 M sucrose with dye)): motile and fluorescent sperm were observed; motile and fluorescent sperm ([3]; electroporated, 10 V, time constant 0.26 ms, isotonic solution (0.25 M sucrose)): motile and fluorescent sperm were observed; enhancement of the number of motile and fluorescent sperm ([3]; hypertonic/hypotonic solution compared with isotonic solution): approximately five-ten; fluorescence of observed motile sperm ([3]; hypertonic/hypotonic solution exposed to the electric field): displayed fluorescence
Ethidium homodimer-1 [Ethidium homodimer-1 (EthD-1)] | – | – | High-affinity DNA labeling | –
Ethidium homodimer-2 [Ethidium homodimer-2 (EthD-2)] | – | – | Very high-affinity DNA labeling | –
CC[n+]1c(/C=C/C=C/c2ccc(N(C)C)cc2)ccc2cc(N(C)C)ccc21.[O-][Cl+3]([O-])([O-])[O-] [LDS 751] | – | Permeant | – | –
COc1ccc2nc3cc(Cl)ccc3c(N)c2c1 [ACMA, 9-amino-6-chloro-2-methoxyactridine] | AT-selective | – | – | –
N=C(N)c1ccc(-c2cc3ccc(C(=N)N)cc3[nH]2)cc1 [DAPI] | AT-selective | Semi-permeant | – | –
